Literature values as cited in patent publication US10525009B2, “Formulations of 6-mercaptopurine” (Hadasit Medical Research Services and Development Ltd., priority 2004, dated 2020).

For `Sc1ncnc2nc[nH]c12` [6-MP, 6-mercaptopurine], the “fraction of an oral dose absorbed” value is listed as “Approximately 50%”.
